Laboratory results reported in ChEMBL document CHEMBL1201862, “PubChem BioAssay data set” (2004).
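Where inhibition never reached the appropriate level, the endpoint shown equals the highest concentration tested. Otherwise, values were interpolated linearly from a five-concentration, 48-hour dose response in 96-well plates. GI50 marks 50% less growth.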 The source made the active and inactive calls. Cut-off read from the data, not from the text of the source: active = GI50 up to about 1.1 µM and inactive = higher.

Columns and labels:
Test in all cases: NCI-60 cell line screen, 48 h
[1] = tested on: BT-549
[2] = tested on: TK-10
[3] = tested on: NCI-H23
[4] = tested on: M14
[5] = tested on: MOLT-4
[6] = tested on: MDA-N
[7] = tested on: HCT-116
[8] = tested on: HOP-62
[9] = tested on: RXF 393
[10] = tested on: SK-MEL-2
[11] = tested on: OVCAR-4
[12] = tested on: SK-MEL-5
[13] = tested on: CAKI-1
[14] = tested on: IGROV-1
[15] = tested on: OVCAR-5
[16] = tested on: DU-145
[17] = tested on: SW-620
[18] = tested on: MDA-MB-435
[19] = tested on: A498
[20] = tested on: OVCAR-3
[21] = tested on: LOX IMVI
[22] = tested on: SF-295
[23] = tested on: HL-60
[24] = tested on: Hs-578T
[25] = tested on: RPMI-8226
[26] = tested on: 786-0
[27] = tested on: UACC-257
[28] = tested on: MDA-MB-231
[29] = tested on: K562
[30] = tested on: NCI-H226
[31] = tested on: T47D
[32] = tested on: UACC-62
[33] = tested on: HCC 2998
[34] = tested on: SF-268
[35] = tested on: MCF7
[36] = tested on: SN12C
[37] = tested on: Malme-3M
[38] = tested on: SNB-75
[39] = tested on: SK-MEL-28
[40] = tested on: PC-3
[41] = tested on: HCT-15
[42] = tested on: SK-OV-3
[43] = tested on: EKVX
[44] = tested on: NCI-H522
[45] = tested on: ACHN
[46] = tested on: CCRF-CEM
[47] = tested on: HT-29
[48] = tested on: U-251
[49] = tested on: A549
[50] = tested on: SNB-19
[51] = tested on: NCI-H460
[52] = tested on: KM12
[53] = tested on: COLO 205
[54] = tested on: NCI/ADR-RES
[55] = tested on: HOP-92
[56] = tested on: OVCAR-8
[57] = tested on: UO-31
[58] = tested on: SF-539

CCOC(=O)/C=C(\C(=O)OCC)n1cc(C)c(=O)n(Cc2cnnn2COCCOC(C)=O)c1=O
GI50 [1]: 5.52 µM (inactive)
GI50 [2]: 4.91 µM (inactive)
GI50 [3]: 17.5 µM (inactive)
GI50 [4]: 20.7 µM (inactive)
GI50 [5]: 2.57 µM (inactive)
GI50 [6]: 19.9 µM (inactive)
GI50 [7]: 9.42 µM (inactive)
GI50 [8]: 22.2 µM (inactive)
GI50 [9]: 3.28 µM (inactive)
GI50 [10]: 19.1 µM (inactive)
GI50 [11]: 15.6 µM (inactive)
GI50 [12]: 19.7 µM (inactive)
GI50 [13]: 3.13 µM (inactive)
GI50 [14]: 8.45 µM (inactive)
GI50 [15]: 17.1 µM (inactive)
GI50 [16]: 21.2 µM (inactive)
GI50 [17]: 2.18 µM (inactive)
GI50 [18]: 8.97 µM (inactive)
GI50 [19]: 20.8 µM (inactive)
GI50 [20]: 11.7 µM (inactive)
GI50 [21]: 5.97 µM (inactive)
GI50 [22]: 25.8 µM (inactive)
GI50 [23]: 3.15 µM (inactive)
GI50 [24]: 14.3 µM (inactive)
GI50 [25]: 6.24 µM (inactive)
GI50 [26]: 3.93 µM (inactive)
GI50 [27]: 13.4 µM (inactive)
GI50 [28]: 19.8 µM (inactive)
GI50 [29]: 3.4 µM (inactive)
GI50 [30]: 9.59 µM (inactive)
GI50 [31]: 5.78 µM (inactive)
GI50 [32]: 15.4 µM (inactive)
GI50 [33]: 16.6 µM (inactive)
GI50 [34]: 15.5 µM (inactive)
GI50 [35]: 5.31 µM (inactive)
GI50 [36]: 16 µM (inactive)
GI50 [37]: 1.48 µM (inactive)
GI50 [38]: 18.4 µM (inactive)
GI50 [39]: 9.89 µM (inactive)
GI50 [40]: 16 µM (inactive)
GI50 [41]: 3.44 µM
GI50 [42]: 55.7 µM (inactive)
GI50 [43]: 11.9 µM (inactive)
GI50 [44]: 1.21 µM (inactive)
GI50 [45]: 2.67 µM (inactive)
GI50 [46]: 1.75 µM (inactive)
GI50 [47]: 8.59 µM (inactive)
GI50 [48]: 17.7 µM (inactive)
GI50 [49]: 21.6 µM (inactive)
GI50 [50]: 35.2 µM (inactive)
GI50 [51]: 11.9 µM (inactive)
GI50 [52]: 16.4 µM (inactive)
GI50 [53]: 2.07 µM (inactive)
GI50 [54]: 16.1 µM (inactive)
GI50 [55]: 1.92 µM (inactive)
GI50 [56]: 7.03 µM (inactive)
GI50 [57]: 14.4 µM (inactive)
GI50 [58]: 2.2 µM (inactive)

COC1=CC(=O)C2=C(C[C@@]3(C)C(=C2)C(CO)=CC[C@H]3O)C1=O
GI50 [1]: 19.2 µM (inactive)
GI50 [2]: 98.2 µM (inactive)
GI50 [3]: 20.4 µM (inactive)
GI50 [4]: 21.8 µM (inactive)
GI50 [5]: 0.0975 µM (active)
GI50 [6]: 19 µM (inactive)
GI50 [7]: 18.7 µM (inactive)
GI50 [8]: 25.2 µM (inactive)
GI50 [9]: 16.4 µM (inactive)
GI50 [11]: 17.9 µM (inactive)
GI50 [12]: 17.4 µM (inactive)
GI50 [13]: 73.3 µM (inactive)
GI50 [14]: 14.6 µM (inactive)
GI50 [15]: 27 µM (inactive)
GI50 [16]: 38.9 µM (inactive)
GI50 [17]: 25.3 µM (inactive)
GI50 [18]: 20.7 µM (inactive)
GI50 [19]: > 100 µM (inactive)
GI50 [20]: 24.9 µM (inactive)
GI50 [21]: 17.1 µM (inactive)
GI50 [22]: 22 µM (inactive)
GI50 [23]: 1.79 µM (inactive)
GI50 [24]: 30.9 µM (inactive)
GI50 [25]: 18.4 µM (inactive)
GI50 [26]: 20.7 µM (inactive)
GI50 [27]: 18.6 µM (inactive)
GI50 [28]: 3.86 µM (inactive)
GI50 [29]: 2.57 µM (inactive)
GI50 [30]: 14 µM (inactive)
GI50 [31]: 24.6 µM (inactive)
GI50 [32]: 17.6 µM (inactive)
GI50 [33]: 36.5 µM (inactive)
GI50 [34]: 18.7 µM (inactive)
GI50 [35]: 16 µM (inactive)
GI50 [36]: 17.8 µM (inactive)
GI50 [37]: 34.2 µM (inactive)
GI50 [39]: 29.6 µM (inactive)
GI50 [40]: 28.2 µM (inactive)
GI50 [41]: 27.5 µM
GI50 [42]: 88.5 µM (inactive)
GI50 [43]: 21.8 µM (inactive)
GI50 [45]: 18.2 µM (inactive)
GI50 [46]: 4.04 µM (inactive)
GI50 [47]: 46.1 µM (inactive)
GI50 [48]: 21 µM (inactive)
GI50 [49]: 33.7 µM (inactive)
GI50 [50]: 68.1 µM (inactive)
GI50 [51]: 25.9 µM (inactive)
GI50 [52]: 31.4 µM (inactive)
GI50 [53]: 27.5 µM (inactive)
GI50 [54]: 23.5 µM (inactive)
GI50 [55]: 11 µM (inactive)
GI50 [56]: 18.2 µM (inactive)
GI50 [57]: 20 µM (inactive)
GI50 [58]: 18.8 µM (inactive)

Cn1c(COC(=O)NC2CCCCC2)c(COC(=O)NC2CCCCC2)c2ccc3cc(C=O)ccc3c21
GI50 [1]: > 100 µM (inactive)
GI50 [2]: > 100 µM (inactive)
GI50 [3]: > 100 µM (inactive)
GI50 [4]: > 100 µM (inactive)
GI50 [5]: > 100 µM (inactive)
GI50 [6]: > 100 µM (inactive)
GI50 [7]: > 100 µM (inactive)
GI50 [9]: 51.1 µM (inactive)
GI50 [10]: > 100 µM (inactive)
GI50 [12]: > 100 µM (inactive)
GI50 [13]: > 100 µM (inactive)
GI50 [14]: > 100 µM (inactive)
GI50 [15]: > 100 µM (inactive)
GI50 [16]: > 100 µM (inactive)
GI50 [17]: > 100 µM (inactive)
GI50 [18]: 45.7 µM (inactive)
GI50 [19]: > 100 µM (inactive)
GI50 [20]: > 100 µM (inactive)
GI50 [21]: > 100 µM (inactive)
GI50 [22]: > 100 µM (inactive)
GI50 [23]: 38.1 µM (inactive)
GI50 [24]: 35.3 µM (inactive)
GI50 [26]: 83.6 µM (inactive)
GI50 [27]: > 100 µM (inactive)
GI50 [28]: 85.1 µM (inactive)
GI50 [29]: > 100 µM (inactive)
GI50 [30]: > 100 µM (inactive)
GI50 [31]: > 100 µM (inactive)
GI50 [32]: > 100 µM (inactive)
GI50 [33]: > 100 µM (inactive)
GI50 [34]: 37.5 µM (inactive)
GI50 [35]: > 100 µM (inactive)
GI50 [36]: > 100 µM (inactive)
GI50 [37]: > 100 µM (inactive)
GI50 [38]: 18.6 µM (inactive)
GI50 [40]: > 100 µM (inactive)
GI50 [41]: > 100 µM
GI50 [42]: > 100 µM (inactive)
GI50 [43]: > 100 µM (inactive)
GI50 [45]: > 100 µM (inactive)
GI50 [46]: > 100 µM (inactive)
GI50 [47]: > 100 µM (inactive)
GI50 [48]: 27.9 µM (inactive)
GI50 [49]: > 100 µM (inactive)
GI50 [50]: > 100 µM (inactive)
GI50 [51]: > 10 µM (inactive)
GI50 [52]: > 100 µM (inactive)
GI50 [53]: > 100 µM (inactive)
GI50 [54]: > 100 µM (inactive)
GI50 [55]: 32 µM (inactive)
GI50 [56]: > 100 µM (inactive)
GI50 [57]: > 100 µM (inactive)
GI50 [58]: > 100 µM (inactive)
